Source: patent US10239869B2, “Sulfonamide compounds as voltage-gated sodium channel modulators” (LUPIN LIMITED, priority 2015, dated 2019)
Where two headings read alike, the source gives them in different places.

Columns and labels:
Nav 1.7 = Nav 1.7 (Homo sapiens (Human), UniProt Q15858); test: Inhibition of sodium channels, Red Membrane Potential Dye FLIPR assay, veratridine depolarization; type: cell-based; settings: HEK-293 cells overexpressing the channel; for IC50: read-out: Nav1.7 IC50
Nav 1.5 = Nav 1.5 (Homo sapiens (Human), UniProt Q14524); test: as above; type: cell-based; settings: HEK-293 cells overexpressing the channel; for inhibition at 10 µM: HEK-293 cells overexpressing Nav 1.5
[1] = read-out: Nav1.5 IC50 (bound given in μM)

Sequence of Nav 1.7 (Q15858 whole entry): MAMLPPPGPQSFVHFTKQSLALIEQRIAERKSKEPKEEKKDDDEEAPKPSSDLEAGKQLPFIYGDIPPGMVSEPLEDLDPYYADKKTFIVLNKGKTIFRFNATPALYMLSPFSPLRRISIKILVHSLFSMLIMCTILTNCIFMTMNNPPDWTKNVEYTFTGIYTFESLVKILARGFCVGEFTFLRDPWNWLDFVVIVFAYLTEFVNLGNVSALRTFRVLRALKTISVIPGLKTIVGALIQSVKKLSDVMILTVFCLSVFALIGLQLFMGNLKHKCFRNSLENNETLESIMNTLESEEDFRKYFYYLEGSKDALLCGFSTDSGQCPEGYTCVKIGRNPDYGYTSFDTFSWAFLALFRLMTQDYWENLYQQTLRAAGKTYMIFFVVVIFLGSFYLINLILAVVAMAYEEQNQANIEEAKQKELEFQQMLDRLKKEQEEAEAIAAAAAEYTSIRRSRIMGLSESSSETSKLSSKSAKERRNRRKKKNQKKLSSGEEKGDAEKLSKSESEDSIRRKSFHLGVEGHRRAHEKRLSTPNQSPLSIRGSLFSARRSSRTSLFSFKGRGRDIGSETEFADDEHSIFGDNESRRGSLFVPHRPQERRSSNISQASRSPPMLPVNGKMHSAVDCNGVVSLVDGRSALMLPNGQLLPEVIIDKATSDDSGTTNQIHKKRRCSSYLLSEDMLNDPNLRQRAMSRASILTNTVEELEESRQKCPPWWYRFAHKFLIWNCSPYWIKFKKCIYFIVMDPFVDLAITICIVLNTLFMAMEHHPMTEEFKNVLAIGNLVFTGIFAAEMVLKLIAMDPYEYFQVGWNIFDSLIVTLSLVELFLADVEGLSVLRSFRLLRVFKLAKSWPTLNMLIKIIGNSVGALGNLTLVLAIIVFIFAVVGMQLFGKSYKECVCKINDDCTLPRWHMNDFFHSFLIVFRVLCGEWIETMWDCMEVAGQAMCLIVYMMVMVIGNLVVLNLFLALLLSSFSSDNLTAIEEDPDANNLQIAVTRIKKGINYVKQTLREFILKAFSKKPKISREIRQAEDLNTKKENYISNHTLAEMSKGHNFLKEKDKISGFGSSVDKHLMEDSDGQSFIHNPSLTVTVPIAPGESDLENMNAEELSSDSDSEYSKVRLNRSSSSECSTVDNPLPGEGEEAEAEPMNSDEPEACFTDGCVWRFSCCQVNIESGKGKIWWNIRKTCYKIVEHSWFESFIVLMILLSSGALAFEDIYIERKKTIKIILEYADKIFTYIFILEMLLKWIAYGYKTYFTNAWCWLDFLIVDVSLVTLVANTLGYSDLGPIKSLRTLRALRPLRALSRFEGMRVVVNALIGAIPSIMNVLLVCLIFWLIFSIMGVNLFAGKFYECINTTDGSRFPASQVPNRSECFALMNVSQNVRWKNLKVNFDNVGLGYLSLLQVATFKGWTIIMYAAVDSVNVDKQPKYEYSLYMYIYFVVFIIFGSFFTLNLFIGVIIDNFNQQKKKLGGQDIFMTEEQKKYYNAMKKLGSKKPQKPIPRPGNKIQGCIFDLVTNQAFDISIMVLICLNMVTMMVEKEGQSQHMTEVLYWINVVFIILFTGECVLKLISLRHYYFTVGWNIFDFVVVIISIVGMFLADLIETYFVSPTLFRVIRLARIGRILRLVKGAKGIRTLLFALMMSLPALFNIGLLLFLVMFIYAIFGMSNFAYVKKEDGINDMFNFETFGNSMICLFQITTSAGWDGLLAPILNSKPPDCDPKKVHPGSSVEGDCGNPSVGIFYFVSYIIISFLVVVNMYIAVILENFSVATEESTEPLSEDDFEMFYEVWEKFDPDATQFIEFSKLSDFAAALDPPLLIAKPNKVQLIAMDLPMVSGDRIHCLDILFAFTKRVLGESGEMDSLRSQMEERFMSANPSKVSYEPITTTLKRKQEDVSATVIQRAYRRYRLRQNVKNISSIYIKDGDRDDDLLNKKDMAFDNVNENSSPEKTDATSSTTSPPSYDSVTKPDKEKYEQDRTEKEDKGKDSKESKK
Sequence of Nav 1.5 (Q14524 whole entry): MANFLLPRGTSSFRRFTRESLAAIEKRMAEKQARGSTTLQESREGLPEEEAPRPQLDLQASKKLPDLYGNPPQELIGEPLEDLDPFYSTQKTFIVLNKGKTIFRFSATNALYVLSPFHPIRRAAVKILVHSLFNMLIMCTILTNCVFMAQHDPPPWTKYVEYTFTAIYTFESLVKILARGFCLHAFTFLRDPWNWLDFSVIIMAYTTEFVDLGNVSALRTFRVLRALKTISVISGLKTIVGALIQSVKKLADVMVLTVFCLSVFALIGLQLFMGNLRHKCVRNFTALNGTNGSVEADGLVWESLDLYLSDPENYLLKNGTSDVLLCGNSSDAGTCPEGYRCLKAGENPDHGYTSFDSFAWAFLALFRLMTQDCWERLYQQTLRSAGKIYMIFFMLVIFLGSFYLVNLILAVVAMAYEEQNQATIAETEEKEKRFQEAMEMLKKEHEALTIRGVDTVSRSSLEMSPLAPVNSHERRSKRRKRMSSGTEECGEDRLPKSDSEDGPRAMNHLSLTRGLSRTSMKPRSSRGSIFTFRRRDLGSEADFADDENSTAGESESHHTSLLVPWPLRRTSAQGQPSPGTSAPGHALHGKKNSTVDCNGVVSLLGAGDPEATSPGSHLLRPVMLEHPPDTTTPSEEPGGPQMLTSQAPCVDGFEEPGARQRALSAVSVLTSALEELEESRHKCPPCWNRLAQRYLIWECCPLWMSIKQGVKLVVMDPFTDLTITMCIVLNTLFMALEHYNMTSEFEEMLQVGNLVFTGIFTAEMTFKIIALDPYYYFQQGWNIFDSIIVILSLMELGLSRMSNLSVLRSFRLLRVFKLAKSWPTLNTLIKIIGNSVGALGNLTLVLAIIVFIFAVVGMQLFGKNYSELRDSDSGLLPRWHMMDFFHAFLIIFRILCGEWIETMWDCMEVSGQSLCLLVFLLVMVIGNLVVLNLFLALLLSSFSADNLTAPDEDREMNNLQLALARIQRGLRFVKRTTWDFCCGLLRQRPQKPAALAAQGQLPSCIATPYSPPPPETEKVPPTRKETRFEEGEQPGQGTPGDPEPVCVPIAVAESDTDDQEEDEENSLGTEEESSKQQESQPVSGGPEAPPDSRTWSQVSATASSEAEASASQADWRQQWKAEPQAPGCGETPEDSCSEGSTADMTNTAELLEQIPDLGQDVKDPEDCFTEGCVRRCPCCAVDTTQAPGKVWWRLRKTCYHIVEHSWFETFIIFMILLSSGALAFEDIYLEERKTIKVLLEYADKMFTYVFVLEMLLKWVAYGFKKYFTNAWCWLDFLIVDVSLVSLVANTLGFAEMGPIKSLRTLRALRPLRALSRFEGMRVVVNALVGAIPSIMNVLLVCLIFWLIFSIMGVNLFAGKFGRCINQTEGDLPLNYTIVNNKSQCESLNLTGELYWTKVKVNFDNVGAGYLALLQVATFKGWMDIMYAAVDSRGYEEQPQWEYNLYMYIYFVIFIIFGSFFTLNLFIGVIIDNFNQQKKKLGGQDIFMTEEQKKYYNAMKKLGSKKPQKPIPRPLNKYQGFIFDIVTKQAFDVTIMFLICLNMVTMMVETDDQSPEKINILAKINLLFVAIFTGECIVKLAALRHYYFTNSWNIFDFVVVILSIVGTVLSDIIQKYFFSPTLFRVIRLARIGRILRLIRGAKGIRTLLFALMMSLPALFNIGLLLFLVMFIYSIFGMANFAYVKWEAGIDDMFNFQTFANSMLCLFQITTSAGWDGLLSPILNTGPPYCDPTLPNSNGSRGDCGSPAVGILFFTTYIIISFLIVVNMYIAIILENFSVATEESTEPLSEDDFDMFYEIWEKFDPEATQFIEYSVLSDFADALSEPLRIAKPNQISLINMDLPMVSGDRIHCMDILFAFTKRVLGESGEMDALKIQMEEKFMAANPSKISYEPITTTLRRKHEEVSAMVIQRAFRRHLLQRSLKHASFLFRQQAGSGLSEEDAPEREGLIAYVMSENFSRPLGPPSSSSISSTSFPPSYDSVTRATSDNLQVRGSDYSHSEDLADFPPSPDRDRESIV

Structure (SMILES) | IC50 (Nav 1.7) [nM] | IC50 (Nav 1.5; [1]) [µM] | Nav1.7 inhibition @ 10 μM (Nav 1.7) [%] | inhibition at 10 µM (Nav 1.5) [%] | IC50 (Nav 1.5; read-out: Nav1.5 IC50) [µM]
CS(=O)(=O)CCc1cc(C(F)(F)F)ccc1[C@H]1CCOc2cc(S(=O)(=O)Nc3ncccn3)ccc21 [Example 84, (S&R)-4-(2-(2-(Methylsulfonyl)ethyl)-4-(trifluoromethyl)phenyl)-N-(pyrimidin-2-yl)chroman-7-sulfonamide] | 2580 | > 10 |  |  | 
Cn1nccc1-c1cc(C(F)(F)F)ccc1[C@@H]1CCOc2cc(S(=O)(=O)Nc3cccnc3F)ccc21 [Example 27, (S&R)—N-(2-fluoropyridin-3-yl)-4-(2-(1-methyl-1H-pyrazol-5-yl)-4-(trifluoromethyl)phenyl)chroman-7-sulfonamide] |  | > 10 | 80 |  | 
O=C(O)c1ccc(-c2cc(C(F)(F)F)ccc2[C@H]2CCOc3cc(S(=O)(=O)Nc4ncc(F)cn4)ccc32)cc1 [compound 190, (S&R)-2′-(7-(N-(5-fluoropyrimidin-2-yl)sulfamoyl)chroman-4-yl)-5′-(trifluoromethyl)-[1,1′-biphenyl]-4-carboxylic acid] | 257 | > 10 |  |  | 
O=S(=O)(Nc1ccncn1)c1ccc2c(c1)OCC[C@@H]2c1ccc(C(F)(F)F)cc1-c1nccs1 (racemic) [Example 94, (R/S)—N-(pyrimidin-4-yl)-4-(2-(thiazol-2-yl)-4-(trifluoromethyl)phenyl)chroman-7-sulfonamide] | 3 |  |  | 51 | 
Cc1ccnc(NS(=O)(=O)c2ccc3c(c2)OCC[C@@H]3c2ccc(C(F)(F)F)cc2-c2ccnn2C)n1 [Example 30, (S&R)-4-(2-(1-methyl-1H-pyrazol-5-yl)-4-(trifluoromethyl)phenyl)-N-(4-methylpyrimidin-2-yl)chroman-7-sulfonamide] |  | > 10 | 72 |  | 
CCCc1cc(C(F)(F)F)ccc1C1CCOc2cc(S(=O)(=O)Nc3cccnn3)ccc21 (stereo not drawn) [Example-243] | 92 |  |  |  | 2.41
Cc1nc(-c2cc(C(F)(F)F)ccc2[C@H]2CCOc3cc(S(=O)(=O)Nc4ncc(F)cn4)ccc32)ccc1F (racemic) [Example-223, (R/S)-4-(2-(5-fluoro-6-methylpyridin-2-yl)-4-(trifluoromethyl)phenyl)-N-(5-fluoropyrimidin-2-yl)chroman-7-sulfonamide] | 82 |  |  | 33 | 
COCCCCc1cc(C(F)(F)F)ccc1[C@@H]1CCOc2cc(S(=O)(=O)Nc3ncccn3)ccc21 [Example 146, (S&R)-4-(2-(4-methoxybutyl)-4-(trifluoromethyl)phenyl)-N-(pyrimidin-2-yl)chroman-7-sulfonamide] | 790 | > 10 |  |  | 
CCOc1ccc(-c2cc(C(F)(F)F)ccc2[C@H]2CCOc3cc(S(=O)(=O)Nc4ncccn4)ccc32)cn1 (racemic) [Example 103, (R/S)-4-(2-(6-ethoxypyridin-3-yl)-4-(trifluoromethyl)phenyl)-N-(pyrimidin-2-yl)chroman-7-sulfonamide] | 10 |  |  |  | 0.932
O=S(=O)(Nc1cccc(F)n1)c1ccc2c(c1)OCC[C@@H]2c1ccc(C(F)(F)F)cc1CCCCF (racemic) [Example 167, (R/S)-4-(2-(4-fluorobutyl)-4-(trifluoromethyl)phenyl)-N-(6-fluoropyridin-2-yl)chroman-7-sulfonamide] | 58 |  |  |  | 0.241
O=S(=O)(Nc1cccc(F)n1)c1ccc2c(c1)OCC[C@@H]2c1ccc(C(F)(F)F)cc1Cl (racemic) [Example 108, (S/R)-4-(2-chloro-4-(trifluoromethyl)phenyl)-N-(6-fluoropyridin-2-yl)chroman-7-sulfonamide] | 57 |  |  |  | 2.18
O=C1OCCN1c1cc(C(F)(F)F)ccc1[C@H]1CCOc2cc(S(=O)(=O)Nc3ncc(F)cn3)ccc21 (racemic) [Example-208, (R/S)—N-(5-fluoropyrimidin-2-yl)-4-(2-(2-oxooxazolidin-3-yl)-4-(trifluoromethyl)phenyl)chroman-7-sulfonamide] | 46 | > 10 |  |  | 
